In ChEMBL document CHEMBL1127758 (Bioorg Med Chem Lett, 1994):

Assays:
[1] = Inhibition of Ribosomal protein S6 kinase
[2] = Inhibitory activity against phosphorylase kinase was determined
[3] = target: cAMP-dependent protein kinase (PKA) (Homo sapiens, UniProt P22694+P17612+P22612)
Description: Inhibitory activity against cAMP-dependent protein kinase A was determined

[4] = target: Epidermal growth factor receptor (Homo sapiens, UniProt P00533)
Description: Inhibitory activity against protein tyrosine kinase of Epidermal growth factor receptor was determined

[5] = target: Proto-oncogene tyrosine-protein kinase Src (Homo sapiens, UniProt P12931); experiment: Inhibition of Src tyrosine kinase
Proto-oncogene tyrosine-protein kinase Src, sequence (P12931 2-536 limits assumed): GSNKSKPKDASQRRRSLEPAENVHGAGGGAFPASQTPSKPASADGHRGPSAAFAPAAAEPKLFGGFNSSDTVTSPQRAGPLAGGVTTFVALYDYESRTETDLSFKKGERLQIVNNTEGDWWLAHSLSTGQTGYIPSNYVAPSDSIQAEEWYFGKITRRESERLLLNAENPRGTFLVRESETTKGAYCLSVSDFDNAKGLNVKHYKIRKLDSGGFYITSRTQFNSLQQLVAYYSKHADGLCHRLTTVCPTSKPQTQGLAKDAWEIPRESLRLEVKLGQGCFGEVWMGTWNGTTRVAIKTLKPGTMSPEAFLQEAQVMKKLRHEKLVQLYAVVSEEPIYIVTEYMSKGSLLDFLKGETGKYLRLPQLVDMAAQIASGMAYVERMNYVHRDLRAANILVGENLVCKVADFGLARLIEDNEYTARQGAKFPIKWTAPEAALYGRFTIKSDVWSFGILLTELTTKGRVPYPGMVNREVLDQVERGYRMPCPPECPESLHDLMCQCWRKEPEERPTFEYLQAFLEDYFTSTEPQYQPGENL

Epidermal growth factor receptor, sequence (P00533 whole entry): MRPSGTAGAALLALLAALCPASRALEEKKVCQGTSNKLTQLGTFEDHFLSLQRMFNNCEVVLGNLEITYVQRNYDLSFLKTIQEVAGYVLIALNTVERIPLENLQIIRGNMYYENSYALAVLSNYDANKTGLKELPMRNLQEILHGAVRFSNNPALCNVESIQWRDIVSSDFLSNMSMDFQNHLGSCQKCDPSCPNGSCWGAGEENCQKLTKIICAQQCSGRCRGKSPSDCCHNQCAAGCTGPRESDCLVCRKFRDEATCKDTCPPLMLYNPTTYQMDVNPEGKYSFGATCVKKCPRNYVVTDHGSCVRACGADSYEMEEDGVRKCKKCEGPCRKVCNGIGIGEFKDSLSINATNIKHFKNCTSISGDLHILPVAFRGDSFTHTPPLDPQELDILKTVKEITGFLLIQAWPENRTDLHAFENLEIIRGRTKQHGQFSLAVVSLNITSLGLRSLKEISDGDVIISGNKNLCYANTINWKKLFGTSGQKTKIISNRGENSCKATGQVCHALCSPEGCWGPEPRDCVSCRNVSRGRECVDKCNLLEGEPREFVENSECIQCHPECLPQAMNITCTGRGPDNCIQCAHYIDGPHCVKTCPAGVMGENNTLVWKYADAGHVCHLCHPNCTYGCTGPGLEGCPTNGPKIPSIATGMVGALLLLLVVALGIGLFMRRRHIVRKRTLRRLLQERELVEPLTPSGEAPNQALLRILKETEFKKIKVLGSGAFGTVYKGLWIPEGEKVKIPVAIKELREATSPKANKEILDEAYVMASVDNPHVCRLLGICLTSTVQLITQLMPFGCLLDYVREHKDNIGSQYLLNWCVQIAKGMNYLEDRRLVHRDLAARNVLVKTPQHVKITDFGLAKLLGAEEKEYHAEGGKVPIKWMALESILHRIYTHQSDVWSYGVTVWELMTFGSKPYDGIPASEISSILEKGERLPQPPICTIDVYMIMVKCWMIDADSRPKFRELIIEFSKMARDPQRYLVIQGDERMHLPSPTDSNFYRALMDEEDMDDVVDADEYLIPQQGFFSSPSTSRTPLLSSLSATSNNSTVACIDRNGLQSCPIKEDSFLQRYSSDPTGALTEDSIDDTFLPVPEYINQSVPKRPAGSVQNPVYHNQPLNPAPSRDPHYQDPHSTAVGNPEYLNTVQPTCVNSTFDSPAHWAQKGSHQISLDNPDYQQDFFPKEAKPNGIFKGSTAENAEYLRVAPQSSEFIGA

SMILES | IC50 [1] [nM] | IC50 [2] [nM] | IC50 [3] [nM] | IC50 [4] [nM] | IC50 [5] [nM]
CO[C@H]1[C@@H](N(C)C(=O)c2cccc([N+](=O)[O-])c2)C[C@@H]2O[C@@]1(C)n1c3ccccc3c3c4c(c5c6ccccc6n2c5c31)C(=O)NC4 | 100 | 60 | 2500 | – | –
CN[C@H]1C[C@@H]2O[C@](C)([C@H]1OC)n1c3ccccc3c3c4c(c5c6ccccc6n2c5c31)C(=O)N[C@@H]4O | – | 4 | – | – | –
CO[C@H]1[C@@H](N(C)C(=O)OC(C)(C)C)C[C@@H]2O[C@@]1(C)n1c3ccccc3c3c4c(c5c6ccccc6n2c5c31)C(=O)NC4 | 1000 | 420 | 28000 | – | –
CO[C@H]1[C@@H](N(C)CCC#N)C[C@@H]2O[C@@]1(C)n1c3ccccc3c3c4c(c5c6ccccc6n2c5c31)C(=O)NC4 | – | 24 | 1400 | – | –
CN[C@H]1C[C@@H]2O[C@](C)([C@H]1OC)n1c3ccccc3c3c4c(c5c6ccccc6n2c5c31)C(=O)N[C@H]4O | – | 6 | – | – | –
CO[C@H]1[C@@H](N(C)C(=O)c2ccc(C(=O)O)cc2)C[C@@H]2O[C@@]1(C)n1c3ccccc3c3c4c(c5c6ccccc6n2c5c31)C(=O)NC4 | 100 | 30 | 10000 | – | –
CO[C@H]1[C@@H](N(C)C(=O)c2ccccc2)C[C@@H]2O[C@@]1(C)n1c3ccccc3c3c4c(c5c6ccccc6n2c5c31)C(=O)NC4=O | – | 270 | 750 | – | –
CCCCC(O)CN(C)[C@H]1C[C@@H]2O[C@](C)([C@H]1OC)n1c3ccccc3c3c4c(c5c6ccccc6n2c5c31)C(=O)NC4 (some centres not stated) | – | 50 | 360 | – | –
CO[C@H]1[C@@H](N(C)C(=O)c2ccccc2Cl)C[C@@H]2O[C@@]1(C)n1c3ccccc3c3c4c(c5c6ccccc6n2c5c31)C(=O)NC4 | – | 78 | 1500 | – | –
CO[C@H]1[C@@H](N(C)Cc2ccccc2)C[C@@H]2O[C@@]1(C)n1c3ccccc3c3c4c(c5c6ccccc6n2c5c31)C(=O)NC4 | – | 100 | 480 | – | –
CO[C@H]1[C@@H](N(C)C(=O)CN)C[C@@H]2O[C@@]1(C)n1c3ccccc3c3c4c(c5c6ccccc6n2c5c31)C(=O)NC4 | – | 51 | 360 | – | –
CO[C@H]1[C@@H](N(C)C(=O)c2ccccc2)C[C@@H]2O[C@@]1(C)n1c3ccccc3c3c4c(c5c6ccccc6n2c5c31)C(=O)NC4 | – | 48 | – | – | –
CN[C@H]1C[C@@H]2O[C@](C)([C@H]1OC)n1c3ccccc3c3c4c(c5c6ccccc6n2c5c31)[C@H](O)NC4=O | – | 22 | 2250 | – | –
COC(=O)CN(C)[C@H]1C[C@@H]2O[C@](C)([C@H]1OC)n1c3ccccc3c3c4c(c5c6ccccc6n2c5c31)C(=O)NC4 | – | 440 | 3200 | – | –
CO[C@H]1[C@@H]([N+](C)(C)C)C[C@@H]2O[C@@]1(C)n1c3ccccc3c3c4c(c5c6ccccc6n2c5c31)C(=O)NC4 | 50 | 21 | 68 | – | –
CO[C@H]1[C@@H](N(C)C(=O)CCC(=O)O)C[C@@H]2O[C@@]1(C)n1c3ccccc3c3c4c(c5c6ccccc6n2c5c31)C(=O)NC4 | – | 62 | 700 | – | 200
CN[C@H]1C[C@@H]2O[C@](C)([C@H]1OC)n1c3ccccc3c3c4c(c5c6ccccc6n2c5c31)C(=O)NC4=O | – | 5 | 26 | – | 800
COC(=O)c1ccc(C(=O)N(C)[C@H]2C[C@@H]3O[C@](C)([C@H]2OC)n2c4ccccc4c4c5c(c6c7ccccc7n3c6c42)C(=O)NC5)cc1 | – | 53 | 3670 | – | –
CO[C@H]1[C@@H](N(C)CC(=O)O)C[C@@H]2O[C@@]1(C)n1c3ccccc3c3c4c(c5c6ccccc6n2c5c31)C(=O)NC4 | – | 15 | 140 | – | –
CCN(C)[C@H]1C[C@@H]2O[C@](C)([C@H]1OC)n1c3ccccc3c3c4c(c5c6ccccc6n2c5c31)C(=O)NC4 | – | 70 | 1600 | – | 240
COC(=O)CN1Cc2c(c3c4ccccc4n4c3c3c2c2ccccc2n3[C@]2(C)O[C@H]4C[C@H](N(C)C(=O)c3ccccc3)[C@@H]2OC)C1=O | > 100000 | ~100000 | > 100000 | – | –
CO[C@H]1[C@@H](N(C)C(=O)c2ccccc2)C[C@@H]2O[C@@]1(C)n1c3ccccc3c3c4c(c5c6ccccc6n2c5c31)C(=O)N[C@@H]4O | – | 35 | – | – | –
CC[N+](C)(C)[C@H]1C[C@@H]2O[C@](C)([C@H]1OC)n1c3ccccc3c3c4c(c5c6ccccc6n2c5c31)C(=O)NC4 | – | 18 | 270 | – | –
CO[C@H]1[C@@H](N(C)C(=O)CNC(=O)OC(C)(C)C)C[C@@H]2O[C@@]1(C)n1c3ccccc3c3c4c(c5c6ccccc6n2c5c31)C(=O)NC4 | 200 | 120 | 2250 | – | 160
CO[C@H]1[C@@H](N(C)C(=O)c2cccc(Cl)c2)C[C@@H]2O[C@@]1(C)n1c3ccccc3c3c4c(c5c6ccccc6n2c5c31)C(=O)NC4 | – | 1900 | 6800 | – | –
CO[C@H]1[C@@H](N(C)OC(=O)C(C)(C)C)C[C@@H]2O[C@@]1(C)n1c3ccccc3c3c4c(c5c6ccccc6n2c5c31)C(=O)NC4=O | – | 5250 | > 100000 | – | –

Continued by falling IC50 [2], values first:

IC50 [1] [nM] | IC50 [2] [nM] | IC50 [3] [nM] | IC50 [4] [nM] | IC50 [5] [nM] | SMILES
> 100000 | ~100000 | > 100000 | – | – | CO[C@H]1[C@@H](N(C)C(=O)c2ccccc2)C[C@@H]2O[C@@]1(C)n1c3ccccc3c3c4c(c5c6ccccc6n2c5c31)C(=O)N(Cc1ccccc1)C4
200 | 370 | > 100000 | – | – | CO[C@H]1[C@@H](N(C)C(=O)c2cc([N+](=O)[O-])cc([N+](=O)[O-])c2)C[C@@H]2O[C@@]1(C)n1c3ccccc3c3c4c(c5c6ccccc6n2c5c31)C(=O)NC4
– | 320 | 2600 | – | – | CO[C@H]1[C@@H](N(C)C(=O)c2ccc(Cl)cc2)C[C@@H]2O[C@@]1(C)n1c3ccccc3c3c4c(c5c6ccccc6n2c5c31)C(=O)NC4
– | 170 | 3300 | – | – | CN[C@H]1C[C@@H]2O[C@](C)([C@H]1OC)n1c3ccccc3c3c4c(c5c6ccccc6n2c5c31)[C@@H](O)NC4=O
– | 130 | 1500 | – | – | COc1ccc(C(=O)N(C)[C@H]2C[C@@H]3O[C@](C)([C@H]2OC)n2c4ccccc4c4c5c(c6c7ccccc7n3c6c42)C(=O)NC5)cc1
– | 80 | 1570 | – | – | CO[C@H]1[C@@H](N(C)C(=O)C2CCCCC2)C[C@@H]2O[C@@]1(C)n1c3ccccc3c3c4c(c5c6ccccc6n2c5c31)C(=O)NC4
– | 40 | 480 | – | – | COC(=O)N(C)[C@H]1C[C@@H]2O[C@](C)([C@H]1OC)n1c3ccccc3c3c4c(c5c6ccccc6n2c5c31)C(=O)NC4
– | 20 | 750 | 8180 | – | CO[C@H]1[C@@H](N(C)C(=O)c2cnccn2)C[C@@H]2O[C@@]1(C)n1c3ccccc3c3c4c(c5c6ccccc6n2c5c31)C(=O)NC4
– | 19 | 1000 | – | – | CO[C@H]1[C@@H](N(C)S(C)(=O)=O)C[C@@H]2O[C@@]1(C)n1c3ccccc3c3c4c(c5c6ccccc6n2c5c31)C(=O)NC4
– | 15 | 55 | – | – | CO[C@H]1[C@@H](N(C)c2ccccc2)C[C@@H]2O[C@@]1(C)n1c3ccccc3c3c4c(c5c6ccccc6n2c5c31)C(=O)NC4
– | 12 | 380 | – | – | CO[C@H]1[C@@H](N(C)C(=O)c2cccnc2)C[C@@H]2O[C@@]1(C)n1c3ccccc3c3c4c(c5c6ccccc6n2c5c31)C(=O)NC4
– | 10 | 1500 | – | – | CO[C@H]1[C@@H](N(C)C(C)=O)C[C@@H]2O[C@@]1(C)n1c3ccccc3c3c4c(c5c6ccccc6n2c5c31)C(=O)NC4
900 | 10 | 1600 | 12500 | – | CNC(=S)N(C)[C@H]1C[C@@H]2O[C@](C)([C@H]1OC)n1c3ccccc3c3c4c(c5c6ccccc6n2c5c31)C(=O)NC4
100 | 10 | 17000 | – | – | CO[C@H]1[C@@H](N(C)C(=O)C(F)(F)F)C[C@@H]2O[C@@]1(C)n1c3ccccc3c3c4c(c5c6ccccc6n2c5c31)C(=O)NC4
